Measured values from US20180311237A1, “COMPOSITIONS AND METHODS FOR PREVENTING AND TREATING MUCOSITIS AND WEIGHT LOSS” (ST IP Holding AG, priority 2007, published 2018).
Values joined by “and” are separate entries in the source; they are usually repeats but may differ in a detail not shown here. Equal entries are not always repeated. Where two headings read alike, the source gives them in different places. Marks after values point to notes of the source that are not given here.

Legend:
spleen = settings: day 10 post-irradiation
Description: The weight of the spleen at each autopsy interval (day 1, 3, 7, 10, 14 and 30 post-irradiation) was determined to study changes.

[1] = Description: The general condition and body weights of the mice in all groups were observed daily. The percent change in body weight in each group of mice was recorded every day by dividing the average body weight of those mice on the first day of treatment.
Remark: listed apart in the source
[2] = test system: NCI-H146 (H146) small cell lung cancer cells
Description: Ninety-six (96) female nude mice ([…]) were randomly assigned into 8 treatment groups. Each mouse was inoculated with 1×10^6 NCI-H146 (H146) small cell lung cancer cells in a volume of 0.05 mL on their lower left flank with Matrigel. Treatment began once tumors reached a volume of 75-125 mm^3.
Initiation of drug treatment was designated day 1. Mice in groups 1 and 5 received vehicle by oral gavage once daily on days 1 and 3. […] Mice in groups 5 to 8 received radiation. The radiation was given as 2 doses of 2 Gy/dose on days 2 and 4. This was accomplished by anesthetizing the mice in these groups with ketamine (100 mg/kg) and xylazine (5 mg/kg) and placing them under a lead shield such that the region of the flank with tumor exposed to the radiation. Radiation was delivered using a Philips 160 kV source at a focal distance of approximately 40 cm, and a dose rate of approximately 1.0 Gy/min. Tumours were measured on alternating days throughout the duration of the study. All mice were sacrificed on day 21 and remaining tumours were excised, measured, weighed, photographed and fixed in formalin for later analysis.
H146 human lung cancer cells were obtained from ATCC. These cells were grown in DMEM supplemented with 10% Fetal Calf Serum (FCS), penicillin and streptomycin, and 2 mM L-Glutamine. Cells were sub-cultured by removing the medium, rinsing twice with sterile calcium- and magnesium-free phosphate buffered saline (PBS) and adding 1 to 2 ml of 0.25% trypsin, 0.03% EDTA solution. The flask was allowed to sit at 37° C. until the cells detached. Cells were then sub-cultured at a ratio of 1:3.
Tumours were measured once every two days with micro-calipers, and tumour volume was calculated as (length×width)[…]. The tumour growth index (TGI) was calculated using the formula 100−([…]), where Vc is the mean volume of the tumours in the control group and Vt is the mean volume of the tumours in the test group.
Tumour volumes were calculated from the length and width measurements taken on alternating days by calculating the mean radius (r), which was the sum of length and width divided by 4, and using the formula 4/3 πr^3 to calculate the volume.

[3] = test system: mice exposed to 6, 8 and 10 Gy gamma radiation
From the text: Male Swiss albino mice (Mus musculus), 6-8 weeks old with 25±3 g body weight from an inbred colony (obtained from Hamadard University, Delhi, India) were used for the present study. Animals were maintained under controlled conditions of temperature and light in an animal house and were provided with standard mice feed (procured from Hindustan Lever's Ltd. Delhi, India) and water ad libitum.
Cobalt teletherapy unit (ATC-C9) at the Cancer treatment centre, Radiotherapy Department, SMS Medical College & Hospital, Jaipur, India, was used for irradiation.
Thirty minutes after the last administration, the animals were exposed to 8 Gy gamma radiation. Survival of the animals was recorded for 30 days after irradiation. The reduced glutathione (GSH) and lipid peroxidation (LPO) levels in liver and blood were estimated after 30 minutes of radiation exposure.
The protective capacity of an agent (chemical or plant extract) is expressed as dose reduction factor (DRF). It can be calculated by dividing the LD50/30 of experimental animals by LD^50/30 of control animals.
Mice of both groups (control as well as experimental) exposed to 6, 8 and 10 Gy gamma radiation were checked daily for 30 days and the percentage of mice surviving 30 days of exposure against each radiation dose was used to construct survival-dose response curves.
The results obtained are expressed as mean±SE. Student's “t” test was used to make a statistical comparison between the groups. Significance levels were set at P<0.05, P<0.01 and P<0.001. Regression analysis was done to obtain LD50/30 values and to determine the dose reduction factor (DRF).

[4] = 100 mg/kg body weight/day, 2 days, + gamma radiation
[5] = 50 mg/kg on days 1 and 3, no radiation
[6] = 50 mg/kg on days 1 to 20, no radiation
[7] = 100 mg/kg on days 1 and 3, no radiation
[8] = radiation plus 50 mg/kg on days 1 and 3
[9] = radiation plus 50 mg/kg on days 1 to 20
[10] = radiation plus 100 mg/kg on days 1 and 3

## Cc1c(-c2cnccn2)ssc1=S
spleen; drug + 6 Gy
  Spleen Weight: 42.44 ± 1.24^b mg
spleen; drug + 8 Gy
  Spleen Weight: 32.62 ± 1.02^b mg
spleen; drug + 10 Gy
  Spleen Weight: 34.38 ± 1.20^c mg
[1]; [4]
  Maximum body weight loss in experimental groups: 22.05%
  minimum body weight loss in experimental groups: 1.7%
[1]; drug + 6 Gy
  increase in body weight from initial body weight at day-30 post-irradiation: 17%
[1]; drug + 8 Gy
  increase in body weight from initial body weight at day-30 post-irradiation: 9.5%
[1]; drug + 10 Gy
  increase in body weight from initial body weight at day-30 post-irradiation: 13.7%
Fasted 18 hours, observed 14 days post-drug treatment
  dose up to which no signs of toxicity and no mortality were observed: up to 2 g/kg
Formulated with carboxymethyl cellulose (CMC)
  amount administrable without significant toxicity: up to 2000 mg/kg
[2]; [5]
  mean tumour volume on Day 1: 72 mm^3
  mean tumour volume on Day 21: 940 mm^3
[2]; [6]
  mean tumour volume on Day 1: 76 mm^3
  mean tumour volume on Day 21: 1130 mm^3
[2]; [7]
  mean tumour volume on Day 1: 110 mm^3
  mean tumour volume on Day 21: 1341 mm^3
[2]; doses and dose schedules of this study
  effect on tumour volume when given in conjunction with radiation therapy: does not have an additive effect
[2]; [8]
  mean tumour volume on Day 1: 93 mm^3
  mean tumour volume on Day 21: 971 mm^3
[2]; [9]
  mean tumour volume on Day 1: 140 mm^3
  mean tumour volume on Day 21: 1380 mm^3
[2]; [10]
  mean tumour volume on Day 1: 63 mm^3
  mean tumour volume on Day 21: 769 mm^3
[2]; single agent, 50 mg/kg once daily on days 1 and 3 (P=0.030)
  tumour volume relative to vehicle controls by day 21: significant reduction in tumour volume
[3]; 100 mg/kg body weight/day before 6 Gy
  radiation sickness: No radiation sickness was observed
[3]; 100 mg/kg body weight/day orally, 2 days, before 6 Gy
  30-Day Survival Percentage: 100%
[3]; 100 mg/kg body weight/day orally, 2 days, before 8 Gy
  30-Day Survival Percentage: 61%
[3]; 100 mg/kg body weight/day orally, 2 days, before 10 Gy
  30-Day Survival Percentage: 20%
[3]; 100 mg/kg body weight/day orally, 2 days, before radiation, regression analysis of survival data
  LD50/30 of experimental animals: 8.82 Gy and 8.51 Gy
[3]; LD50/30 of experimental animals divided by LD50/30 of control animals
  DRF (dose reduction factor): 1.34
[3]; for 2 consecutive days before irradiation (8 Gy)
  optimum dose exhibiting maximum radioprotection: 100 mg/kg body weight/day
